Values of other authors in patent publication US20090029375A1, “GENETIC MODELS FOR STRATIFICATION OF CANCER RISK” (Intergenetics, Inc., priority 2007, published 2009).

Legend:
[1] = system: rat mammary carcinoma induced by dimethylbenzanthracene (DMBA)
[2] = system: estrogen receptors; settings: preclinical data, uterine and breast tissues
[3] = system: breast cancer; settings: osteoporosis prevention/treatment study

Row | Structure (SMILES) | induction of rat mammary carcinoma [1] | estrogen antagonism [2] | effect on incidence of breast cancer [3]
1 | CC/C(=C(\c1ccccc1)c1ccc(OCCN(C)C)cc1)c1ccccc1 [tamoxifen] | inhibits the induction | – | –
2 | O=C(c1ccc(OCCN2CCCCC2)cc1)c1c(-c2ccc(O)cc2)sc2cc(O)ccc12 [raloxifene] | – | estrogen antagonist | reduce the incidence of breast cancer
